Values of other authors in patent US20170022153A1, “FUMARATE COMPOUNDS, PHARMACEUTICAL COMPOSITIONS THEREOF, AND METHODS OF USE” (priority 2015, published 2017).

Structure (SMILES): COC(=O)/C=C/C(=O)OC [DMF, dimethylfumarate]
- aqueous solubility: poor
